Holding throughout (type): cell-based, human
Assay [1] deals with autophagosomes and autophagolysosomes. Description: Cyt-ID and LysoTracker Red staining of autophagosomes, lysosomes and autophagolysosomes. On the procedure: Autophagasome, lysosome and autophagolysosomes staining. Cells (100,000/point) were cultured on fibronectin-coated glass coverslips. Cells were treated with autophagy inhibitor Bafl (1 nM) (Sigma-Aldrich) for 18 hr. Cells were then exposed to UV radiation and allowed to recover in the presence of inhibitors for 3 h. Cells were then washed (2×1 min) with PBS and co-stained with Cyt-ID® (Cyt-ID® Autophagy Detection Kit from Enzo Lifesciences; Farmingdale, NY) and Lyso Tracker® Red DND-99 (Invitrogen) for 30 min at 37° C. in a CO2 incubator following manufacturer's protocol. Stained cells were then washed (2×1 min) with PBS and fixed with 4% paraformaldehyde for 20 min at room temperature. After washing with PBS (3×10 min), cells were mounted on slides in anti-fade mounting medium with DAPI (Invitrogen). Images were taken using a 63× oil immersion objective with a Leica DMRA2 upright microscope run through SlideBook software (Intelligent Imaging Innovations).
Autophagic flux was also monitored using Cyto-ID® and LysoTrack Red dyes. A-T and ATM+ cells were treated with Bafl (1 nM for 18 h) and then exposed to UV (25 mJ/m2) as indicated. Three hours after recovery in the presence of inhibitors, cells were co-stained with Cyt-ID® and LysoTracker Red® dyes. Fluorescence images of Cyt-ID® and LysoTracker Red® stained cells were made (Color images not shown). Green (autophagosomes; from Cyt-TD®-stained panels), red (lysosomes; from LysoTracker Red-stained panels), and yellow (autophagolysosomes; from merged panels) dots in A-T and ATM+ cells were counted manually using the ImageJ plug-in Cell Counter. Mean number of dots/cell is shown in FIGS. 11A and 11B, respectively. In FIGS. 11A and 11B, the number of autophagosomes (green dots) is represented by stippled bars; the number of lysosomes (red dots) is presented by lined bar; and the number of autophagolysosomes (yellow dots) is represented by clear (white) bars.
Bafilomycin inhibits autophagy at a late stage (47). Whether 3-methyl adenine (3-MA), an autophagy inhibitor known to inhibit autophagy at early stage by inhibiting formation of autophagosomes (56), could block UV-induced autophagic flux was tested in A-T/LV-control shRNA cells. Using Cyto-ID® and LysoTrack Red dyes as described herein in FIGS. 9A, 9B, 11A and 11B, the same criteria were used to judge autophagic activity in immunofluorescence analysis as described for FIGS. 11A and 11B.
The effect of 3-MA on UV-induced autophagic flux was tested in A-T/LV-ISG15 shRNA cells. A-T/LV-ISG15 shRNA cells were either left untreated or treated with 3-MA (10 nM for 18 h), and cells were then exposed to UV (25 mJ/m2). Three hours after recovery in the presence of the inhibitor, cells were co-stained with Cyt-ID® and LysoTracker Red® dyes. Fluorescence images of Cyt-ID® and LysoTracker Red® stained cells were made.

In assay [2] the test system is HA-polyubiquitylated proteins. Description: UV-induced degradation of HA-polyubiquitylated proteins (anti-HA Western blot). The following applies: MG132 1 nm or 3-MA 10 nm for 18 h, UV 25 mJ/m2. The protocol: Immunoblotting Analysis of HA-ubiquitin conjugated proteins in cells exposed to UV radiation. Cells ([…]) were transfected with a hemagglutinin (HA)-ubiquitin plasmid using the PolyFect transfection reagent (Qiagen; Valencia, CA) as described (24). Twenty-four h after transfection, cells were treated with either proteasome inhibitor MG132 (1 μM) (Boston Biochemicals; Cambridge, MA) or autophagy inhibitor Bafilomycin A1 (Bafl) (1 nM) (Sigma-Aldrich) or 3-Methyladenine (3-MA) (100 nM) for 18 h. Cells were exposed to UV radiation (25 mJoules, using BioRad GS Gene Linker™ UV Chamber) and/or left untreated. Cells were then allowed to recover in the presence of inhibitors for 3 hr. Cell lysis, SDS-PAGE, and immunoblotting analysis to detect HA-ubiquitin conjugated proteins using anti-HA antibodies was carried out as described herein.
Decrease in the steady state levels of polyubiquitylated proteins could be due to their increased deubiquitylation or increased degradation via the 26S proteasome. Also, the ubiquitin antibody used in the experiment herein is known to cross-react with free ISG15/UCRP (44), and ISG15 protein is elevated in A-T cells (20). An HA-ubiquitin construct was transfected and then the steady state levels of the HA-polyubiquitylated proteins was assessed (to rule out the possibility of protein polyubiquitylation versus protein polyISGlyation), in the absence or presence of the proteasome inhibitor MG132 (to rule out the possibility of protein deubiquitylation versus protein degradation), in UV treated A-T and ATM+ cells. In FIG. 8B, A-T and ATM+ cells were transfected with a HA-ubiquitin construct. Cells were then treated with MG132 (1 μM) or Bafl (1 nM) for 18 hours and exposed to UV radiation (25 mJ/m2). After recovery in the presence of inhibitors for an additional three hours, cells were lysed. Cell extracts were analyzed by Western blotting for HA-polyubiquitylated proteins and actin using anti-HA and anti-actin antibodies respectively. Intensity of the total HA-polyubiquitylated proteins was quantitated using BioRad Quantity One software and results shown in FIG. 8C.
To complement the results shown in FIG. 8B, another construct was used that expresses HA-ubiquitin and that can preferentially make polyubiquitin chains linked through Lys48 on the substrates (20). In FIG. 8D, A-T and ATM+ cells were transfected with HA-Lys48 only ubiquitin construct. The inhibitor and UV treatments, cell lysis, SDS-PAGE, and immunoblotting analysis to detect HA-ubiquitin conjugated proteins using anti-HA antibodies was carried out as described herein. The experiment was repeated two times with the reproducible results. Similar results were obtained using this distinct HA-ubiquitin construct (FIG. 8D) as obtained herein (FIG. 8B); UV induced MG132- and Bafilomycin-resistant degradation of HA-Lys48-linked polyubiquitylated proteins in A-T cells, but not in ATM+ cells.
For FIG. 14A, HA-ubiquitin-transfected A-T/LV-control shRNA cells were exposed to UV (25 mJ/m2). After three hours of recovery, assessment of HA-polyubiquitylated proteins was carried out as described herein for FIG. 8B. In FIG. 14B, HA-ubiquitin-transfected A-T/LV-control shRNA cells were treated with Bafl (1 nm for 18 h). Cells were then exposed to UV (25 mJ/m2). After three hours of recovery in the presence of the inhibitor, assessment of HA-polyubiquitylated proteins was carried out as described for FIG. 14A. For FIG. 14C, HA-ubiquitin-transfected A-T/LV-control shRNA cells were treated with MG132 (1 nm for 18 h). Cells were then exposed to UV (25 mJ/m2). After three hours of recovery in the presence of the inhibitor, assessment of HA-polyubiquitylated proteins was carried out as described for FIG. 14A. For FIG. 14D, HA-ubiquitin-transfected A-T/LV-control shRNA cells were treated with 3-MA (10 nm for 18 h). Cells were then exposed to UV (25 mJ/m2). […]

Assay [3] relates to polyubiquitylated proteins. The assay can be described thus: CHX chase of polyubiquitylated proteins in FT169A cells. The following applies: FT169A (ATM+) cells. On the procedure:
To test whether the defective ubiquitin-mediated degradation of cellular proteins contributes to neurodegeneration in A-T, the rate of degradation of overall cellular polyubiquitylated proteins was monitored in FT169A (A-T) (ATM null) and FT169A (ATM+) (ATM reconstituted FT169A) isogenic cells as described (71) using the protein synthesis inhibitor cycloheximide (CHX) (Sigma-Aldrich). In FIG. 1A, FT169A (A-T) (lanes 1-4) and FT169A (ATM+) (lanes 5-8) cells were treated with the protein synthesis inhibitor CHX (10 μg/ml) for 0, 1, 3, and 6 hours. Cell lysates were analyzed using discontinuous (15%) SDS-PAGE followed by immunoblotting with anti-ubiquitin antibody. The symbols * and ** mark the position of high-molecular-weight (HMW) polyubiquitylated proteins. Quantitation of the high-molecular-weight (HMW) polyubiquitylated proteins (shown as **) is shown in the bar graph.
The ubiquitin sequence contains seven lysine residues (at positions 6, 11, 27, 29, 33, 48, and 63) and polyubiquitin chain assembly can occur at any of these lysine residues (74). Lys48-linked polyubiquitylated proteins are targeted for destruction via the 26S proteasome (74). […] The amount of polyubiquitylated proteins and the rate of turnover of polyubiquitylated proteins (see the HMW protein species marked by *) were determined under the same conditions as in FIG. 1B using the anti-HA antibody in immunoblotting. […]

Assay [4] concerns Mfn2. Description: Mfn2 modification and degradation in A-T/LV shRNA cells treated with mitochondrial depolarizing agents. Particulars: ISG15 overexpressing A-T cells, 24 hr. On the procedure:
Immunoblotting Analysis of Mitochondrial Proteins—Mitochondria were isolated from A-T/LV control and ISG15 shRNA cells using the Miochondrial Isolation Kit (Thermo Scientific Company, 89874). The Dounce homogenization protocol described by the manufacturer was used to isolate mitochondria from cells. Mitochondrial pellets were resuspended in lysis buffer containing 50 mM Tris pH 7.5 and 4% (v/v) SDS. Samples were homogenized and boiled for 10 min. Lysates containing equal protein were then mixed with 6× Laemmli SDS sample buffer (3× final concentration). Samples were boiled again and mitochondrial proteins were analyzed by SDS-PAGE. Immunoblotting analyses using either anti-ISG15 (raised against human ISG15) (20), anti-ubiquitin (gift from Dr. Arthur Haas, at LSUHSC—New Orleans), or anti-mitofusin 2 (Abcam, ab88569) antibodies were carried out using the ECL Western procedure (Pierce, 34076) and the BioRad VersaDoc Imaging System (BioRad). Immunoblotting Analysis of HA Polyubiquitylated Proteins in Cells: Cells were transfected with HA-ubiquitin using the PolyFect transfection reagent (Qiagen, 301105). Twenty four hours after transfection, mitochondria were isolated as described above. Mitochondrial lysis, SDS-PAGE, and immunoblotting analysis to detect HA-ubiquitin conjugated proteins using anti-HA antibodies were carried out as described above. Immunoblotting Analysis of Mfn2 in Cells: Cells were lysed in lysis buffer containing 50 mM Tris-HCl, pH 7.5, 2% SDS, and protease inhibitor cocktail. Lysates were sonicated, boiled, and cleared by centrifugation. Lysates containing equal protein were then mixed with 6× Laemmli SDS sample buffer (3× final concentration). Samples were boiled again and proteins were separated by 15% SDS-PAGE. Immunoblotting analysis was carried out using anti-Mfn2 antibodies (Abcam) as described above. Intensity of the Mfn2 bands was quantitated using BioRad Quantity One software. Statistical analysis—Statistical analysis was carried out using GraphPad software.
Many outer mitochondrial membrane (OMM) proteins are ubiquitylated and degraded via the 26S proteasome prior to mitophagy in cells treated with the mitochondrial depolarizing agents (28,29). To test whether ISG15 inhibits polyubiquitylation of OMM proteins, we assessed the fate of Mfn2, an OMM protein and proteasome substrate, in A-T/LV-control and A-T/LV-ISG15-silenced cells treated with two different mitochondrial depolarizing agents, valinomycin and carbonylcyanide m-chlorophenylhydrazone (CCCP). Consistent with the literature reports (29,35,36), we observed a ladder of high molecular weight anti-Mfn2 cross-reactive bands above the 86 kDa Mfn2 protein band that is reminiscent of polyubiquitylation, in both ISG15-silenced and ISG15 overexpressing A-T cells (FIGS. 34 A and B, left panels). The endogenous level of these high molecular weight Mfn2 cross-reactive bands was remarkably higher in ISG15-silenced as compared to the ISG15-overexpressing A-T cells in the absence of any drugs (FIGS. 34A and B, first panels, compare lanes 1 and 4). […] In contrast, the level of these Mfn2 cross-reactive high molecular weight bands decreased under the same drug treatment conditions in ISG15-silenced A-T cells (FIGS. 34A and B, first panels, lanes 4-6, and the accompanying bar graph in the second panel for quantitation). […] The bar graphs in FIGS. 34A and B, third panels, show mean values of the ratio between free Mfn2 (86 kDa band) and actin proteins (±SEM) in CCCP-treated A-T/LV-control and ISG15 shRNA cells measured from eight independent experiments, and valinomycin-treated A-T/LV-control and ISG15 shRNA cells measured from three independent experiments respectively.

The structures appear in SMILES notation.

Take `Cn1cnc(N)c2ncnc1-2` [3-MA, 3-Methyladenine]: the “yellow mean dots/cell (autophagolysosomes)” value in assay [1] (3-MA-treated A-T/LV-control shRNA cells, untreated 3.8) turned out to be 0.5 dots/cell. Further, in assay [1] (3-MA-treated A-T/LV-control shRNA cells, untreated 4.6), the “green mean dots/cell (autophagosomes)” value worked out at 0.16 dots/cell. Also, in assay [1] (A-T/LV-ISG15 shRNA cells, 3-MA 10 nM 18 h, UV 25 mJ/m2), the autophagic activity entry was “No apparent change”. In addition, in assay [1] (A-T/LV-control shRNA cells co-treated with 3-MA and UV), the “green dots and yellow dots” value is on record as “remained unaltered”. The “UV-induced degradation of HA-polyubiquitylated proteins” value in assay [2] (A-T/LV-ISG15 shRNA (ISG15-silenced) cells) is recorded as “induced degradation”; in assay [2] (A-T/LV-control shRNA cells), “markedly blocked”.
Consider `C[C@@H]1C[C@@H]([C@H](O)CC2CC(=O)NC(=O)C2)C(=O)[C@@H](C)C1` [CHX, cycloheximide], for which the “level of polyubiquitylated proteins reduced” value in assay [3] (CHX 10 μg/ml, within 6 hours) is on record as “more than 30%”. In addition, in assay [3] (CHX, within 3 hours), the “cellular pool of Lys48-linked polyubiquitylated proteins reduced” value was “more than 70%”.
On to `CC(C)[C@@H]1NC(=O)[C@H](C)OC(=O)[C@@H](C(C)C)NC(=O)[C@@H](C(C)C)OC(=O)[C@H](C(C)C)NC(=O)[C@H](C)OC(=O)[C@@H](C(C)C)NC(=O)[C@@H](C(C)C)OC(=O)[C@H](C(C)C)NC(=O)[C@H](C)OC(=O)[C@@H](C(C)C)NC(=O)[C@@H](C(C)C)OC1=O` [valinomycin], for which the “free Mfn2 protein level” value in assay [4] is “slightly increased”.

The values are drawn from patent US12085575B2, “Compositions and methods for detecting proteinopathies” (BOARD OF SUPERVISORS OF LOUISIANA STATE UNIVERSITY AND …, priority 2011, dated 2024).
